The source of these data is publication PMC8620715, “Biological Activity of Triazolopyrimidine Copper(II) Complexes Modulated by an Auxiliary N-N-Chelating Heterocycle Ligands” (Molecules, 2021).

≈ marks a conversion by molar mass, not a printed value. Read-outs that look alike come from different tables or passages of the source.

Series [1] concerns B16 murine melanoma cell line. As to conditions: cited from earlier work; for TI: 48 h; for IC50: B16, 48 h.
Series [2] deals with E. coli 25922. The following applies: cited from earlier work.
For series [3], the system named is P. aeruginosa 27853. As to conditions: cited from earlier work.
The test system of series [4] is S. aureus 25923. The following applies: cited from earlier work.
In series [5] the test system is MRSA 388. The following applies: cited from earlier work.
For series [6], the system named is E. coli 25922. As to conditions: E. coli 25922, biofilm; cited from earlier work.
For series [7], the system named is P. aeruginosa 27853. The following applies: P. aeruginosa 27853, biofilm; cited from earlier work.
Series [8] concerns S. aureus 25923. As to conditions: S. aureus 25923, biofilm; cited from earlier work.
Series [9] relates to MRSA 388. The following applies: MRSA 388, biofilm; cited from earlier work.
The subject of series [10] is B16 murine melanoma cell line. The experiment in a line: MTT cell viability assay, B16 melanoma cells. Type of series: cell-based, mouse. As to conditions: 24 h and 48 h. The protocol:
(§1) Human fibroblast cells (BJ—ATCC CRL-2522, USA) were grown in minimal essential medium (MEM) supplemented with 2 mM L-Glutamine, 10% fetal calf serum (FCS), 100 units/mL of penicillin, and 100 µg/mL of streptomycin at 37 °C in a humidified incubator under an atmosphere containing 5% CO2. Mouse melanoma cells (B16—ATCC CRL—6475, USA) were grown in DMEM (Dulbecco’s Modified Eagle Medium) supplemented with similar reagents as MEM. All cell cultivation media and reagents were purchased from Biochrom AG (Berlin, Germany) and Sigma-Aldrich (Darmstadt, Germany).
(§2) Cell viability was evaluated using 3-(4,5-dimethylthiazol-2-yl)-2,5-diphenyltetrazolium bromide (MTT) assay as described previously. First, the cells were seeded in 96-well plates (20000 cells/well) and cultured for 24 h in medium. […] The negative control was represented by cells cultivated in a medium without the investigated compounds. Following incubation, the medium was changed, and the MTT solution was added to each well to a final concentration of 1 mg/mL and incubated for an additional 4 h, at 37 °C. Finally, the medium was collected, and DMSO was used to dissolve the insoluble formazan product. The absorbance of the samples was recorded at 570 nm using a plate reader Mithras 940 (Berthold). The data were corrected for the background, and the percentage of viable cells was obtained using the equation:Cell viability = [(A570 of treated cells)/(A570 of untreated cells)] × 100%(1)
(§3) The half-maximal inhibitory concentration (IC50) was determined by fitting the data with a sigmoidal logistical equation using the software Origin 8.1 (Microcal Inc., Los Angeles, CA, USA).
For orientation: Tetrazolium dyes change colour on reduction, which living cells bring about.

Series [11] concerns BJ normal cell line (human fibroblast cells). The series is described as follows: MTT cell viability assay, BJ normal cells. The class given is cell-based. As to conditions: range of tested concentrations, 24 h and 48 h. How it is done: as §1, §2, §3
Series [12] has as its system BJ cells. The series is described as follows: Lactate dehydrogenase (LDH) release assay, BJ cells. As to conditions: 24 h and 48 h. The class given is cell-based, human. How it is done: (§4) Membrane integrity after peptide treatment was assessed based on LDH release using a CytoTox 96 Non-Radioactive Cytotoxicity Assay (Promega), as previously described. […] Maximal LDH release was obtained by complete cell lysis induced by using 1% of Triton X-100. The absorption resulting from LDH activity was measured in a microplate reader Mithras 940 (Berthold) at 490 nm, and the % LDH was calculated as: [(corrected absorbance of the LDH released in treated cells)/(corrected absorbance of the total LDH released)] * 100%.

The subject of series [13] is B16 cells. The series is described as follows: Lactate dehydrogenase (LDH) release assay, B16 cells. The class given is cell-based, mouse. As to conditions: B16, 24 h and 48 h. How it is done:
as §4

The subject of series [14] is E. coli 25922. The experiment in a line: MIC by broth microdilution. The class given is cell-based, Escherichia coli. The following applies: Escherichia coli; E. coli 25922, planktonic; read-out: MIC. The protocol:
(§5) The antibacterial assays were carried out using two Gram-negative (Escherichia coli ATCC 25922, Pseudomonas aeruginosa ATCC 27853) and two Gram-positive (Staphylococcus aureus ATCC 25923, MRSA (meticillin-Resistant S. aureus) 388 (ATCC, American Type Culture Collection) bacteria.
(§6) The antimicrobial activity of the two complexes (1) and (2) was assessed using their minimum inhibitory concentration (MIC) by the broth microdilution method, as previously described by the Clinical and Laboratory Standard Institute (CLSI; M07-A9 document). A broth microdilution assay was performed in sterile 96-well plates using Muller-Hinton broth (Scharlau; MHB). The compounds solubilized in […] (1,000 μg/mL) were serially diluted in 90 μL MHB, in concentrations ranging between 500 and 0.97 μg/mL. Overnight cultures were used to prepare suspension in phosphate-buffered saline (pH 7.0) to match a 0.5 McFarland density. The bacterial suspensions were further diluted to 1:100 by adding 0.1 mL of bacterial suspension to 9.9 mL of MHB. A volume of 10 μL of this dilution was added to each well of columns 1–10, containing different concentrations of the tested compounds. […] Additionally, 10 μL of the diluted bacterial suspension was added in column 11 (the growth control). A volume of 100 μL MHB was added to the microtiter plates’ sterility control wells (column 12). After inoculation, the plates were incubated at 35 ± 2 °C for 18 h. Growth was measured as light absorbance (620 nm) in comparison to an uninoculated well (negative control). It was detected using a microtiter plate reader (Apollo LB 911ELISA (Berthold Technologies GmbH & Co. KG, Waltham, MA, USA)). The MIC of each compound was defined as the lowest concentration required to inhibit bacterial growth.
Background: Broth dilution looks for growth in wells or tubes with falling amounts of substance.

Series [15] relates to P. aeruginosa 27853. The experiment in a line: MIC by broth microdilution. Type of series: cell-based, Pseudomonas aeruginosa. As to conditions: Pseudomonas aeruginosa; P. aeruginosa 27853, planktonic; read-out: MIC. The protocol:
as §5, §6

Series [16] has as its system MRSA 388. The series is described as follows: MIC by broth microdilution. The following applies: Staphylococcus aureus; MRSA 388, planktonic; read-out: MIC. Type of series: cell-based, Staphylococcus aureus. The protocol:
as §5, §6

Series [17] has as its system S. aureus 25923. The experiment in a line: MIC by broth microdilution. The class given is cell-based, Staphylococcus aureus. The following applies: Staphylococcus aureus; S. aureus 25923, planktonic; read-out: MIC. The protocol:
as §5, §6

Series [18] deals with E. coli 25922. The experiment in a line: Biofilm formation on polystyrene (crystal violet), MBEC. The class given is cell-based, Escherichia coli. The following applies: E. coli 25922, biofilm. The protocol:
as §5
(§7) The method for assessment of biofilm formation on polystyrene microtiter plates was based on previously published protocols. The absorbance at 490 nm was measured with an Apollo LB 911ELISA (Berthold Technologies GmbH & Co. KG, Waltham, MA, USA) reader. The minimal biofilm-eradication concentration (MBEC) was defined as the lowest concentration of antibiotics required to eradicate the biofilm. All experiments were performed in triplicate.

In series [19] the test system is P. aeruginosa 27853. The series is described as above. Type of series: cell-based, Pseudomonas aeruginosa. The following applies: P. aeruginosa 27853, biofilm. The protocol:
as §5, §7

Series [20] relates to MRSA 388. Described as above. Type of series: cell-based, Staphylococcus aureus. As to conditions: MRSA 388, biofilm. The protocol:
as §5, §7

In series [21] the test system is S. aureus 25923. The series is described as above. As to conditions: S. aureus 25923, biofilm. The class given is cell-based, Staphylococcus aureus. How it is done: as §5, §7
For series [22], the system named is BJ cells. The series is described as follows: Cell morphology by fluorescence microscopy (phalloidin staining), BJ cells. The class given is cell-based, human. The following applies: 2.5 and 10 µg/mL, 24 h. How it is done: (§8) The morphological changes induced by the treatment of the BJ and B16 cell lines with the tested compounds at two different concentrations (2.5 and 10 µg/mL) applied for 24 h were investigated by fluorescence microscopy.
(§9) According to the manufacturer protocol, the cytoskeleton actin filaments of BJ and B16 cells were stained with phalloidin-FITC (Sigma-Aldrich, St. Louis, MO, USA). Briefly, cells were washed with PBS (5 min, 3 times), fixed for 5 min with 3% paraformaldehyde, washed three times with PBS, permeabilized with 0.1% Triton X-100 in PBS for 15 min, washed three times with PBS, stained with 20 μg/mL phalloidin-FITC at room temperature for 1 h and rewashed three times with PBS. The cell nucleus was stained with 8 μM of Hoechst 33342 solution for 10 min, washed three times with PBS, and finally, mounted and sealed on glass slides with FluorSave™ Reagent (Merck Millipore, Germany). The fluorescence images were acquired using an Andor DSD2 Confocal Unit (Andor, Ireland), mounted on an epifluorescence microscope, Olympus BX-51 (Olympus, Germany), equipped with a 40x and 100x objective and an appropriate DAPI/Hoechst filter cube (excitation filter 390/40 […], dichroic mirror 405 nm and emission filter 452/45 nm) and GFP/FITC filter cube (excitation filter 466/40 nm, dichroic mirror 488 nm and emission filter 525/54 nm).

Series [23] concerns B16 cells. The experiment in a line: Cell morphology by fluorescence microscopy (phalloidin staining), B16 cells. The class given is cell-based, mouse. As to conditions: 2.5 µg/mL (2.84 μM and 2.76 μM for the complexes), 24 h. How it is done:
as §8, §9

One may read the IC50 as the concentration that inhibits the measured activity by half. Usually MIC stands for the lowest concentration that inhibits growth of the organism. Take `Cc1cc(-c2ccccc2)nc2ncnn12.[Cu+2].[O-][Cl+3]([O-])([O-])[O-].[O-][Cl+3]([O-])([O-])[O-].c1ccc(-c2ccccn2)nc1.c1ccc(-c2ccccn2)nc1` [CubPP, [Cu(bpy)2(pmtp)](ClO4)2]: the TI in series [1] is 3.23. For the same compound, the IC50 in series [1] is 20 µM. The MIC in the series with E. coli 25922 [2] was 200 µM; in the series on P. aeruginosa 27853 [3], 400 µM; with S. aureus 25923 [4], 400 µM; in the series with MRSA 388 [5], 400 µM. The MBEC in the series on E. coli 25922 [6] is recorded as 0.40 mM; in the series on P. aeruginosa 27853 [7], 0.40 mM; in the series on S. aureus 25923 [8], 0.80 mM; in the series with MRSA 388 [9], 0.40 mM.
For `O.[Cu+2].[O-][Cl+3]([O-])([O-])[O-].[O-][Cl+3]([O-])([O-])[O-].c1cnc2c(c1)ccc1cccnc12.c1cnc2c(c1)ccc1cccnc12` [CupP, [Cu(phen)2(OH2)](ClO4)2], the TI in series [1] is 0.80. Moreover, the IC50 in series [1] was 3.7 µM. For the same compound, the MIC with E. coli 25922 [2] is 30 µM; in the series on P. aeruginosa 27853 [3] it was 500 µM; in the series on S. aureus 25923 [4], 30 µM; in the series with MRSA 388 [5], 120 µM. The MBEC in the series with E. coli 25922 [6] is listed as 0.10 mM; in the series with P. aeruginosa 27853 [7] it was 0.50 mM; in the series on S. aureus 25923 [8] it was 0.03 mM; in the series with MRSA 388 [9], 0.10 mM.
For the compound `Cc1cc(-c2ccccc2)nc2ncnn12.[Cu+2].[O-][Cl+3]([O-])([O-])[O-].[O-][Cl+3]([O-])([O-])[O-].c1cnc2c(c1)ccc1cccnc12.c1cnc2c(c1)ccc1cccnc12` [CupPP, [Cu(phen)2(pmtp)](ClO4)2], the TI in series [1] is listed as 0.88. Also, the IC50 in series [1] was 4 µM. In addition, the MIC in the series with E. coli 25922 [2] is 20 µM; with P. aeruginosa 27853 [3], 90 µM; with S. aureus 25923 [4] it was 10 µM; with MRSA 388 [5], 50 µM. In addition, the MBEC in the series on E. coli 25922 [6] was 0.02 mM; in the series on P. aeruginosa 27853 [7] it was 0.09 mM; in the series with S. aureus 25923 [8], 0.01 mM; in the series on MRSA 388 [9], 0.05 mM.
Consider `Cc1cc(C)n2ncnc2n1` [dmtp, 5,7-dimethyl-1,2,4-triazolo[1,5-a]pyrimidine, reference compound], for which the “effect on viability of B16 cells” value in [10] is listed as “did not affect the viability”. In addition, the “effect on viability of BJ cells” value in series [11] is on record as “did not affect the viability”. The “membrane integrity (LDH release)” value with BJ cells [12] and in the series with B16 cells [13] was “did not affect the membrane integrity” in each case. Also, the MIC in the series on E. coli 25922 [14] was 8450 µM (≈ 1250 µg/mL); with P. aeruginosa 27853 [15], 8450 µM (≈ 1250 µg/mL); in the series on MRSA 388 [16], 16900 µM (≈ 2500 µg/mL); with S. aureus 25923 [17], 8450 µM (≈ 1250 µg/mL). Besides, the MBEC in the series with E. coli 25922 [18] turned out to be 8.45 mM; in the series with P. aeruginosa 27853 [19] it was 8.45 mM; with MRSA 388 [20], 16.90 mM; with S. aureus 25923 [21], 8.45 mM. For the same compound, the “morphological changes of BJ cells” value in the series with BJ cells [22] is recorded as “did not alter their morphology”. For the same compound, in the series with B16 cells [23], the “morphological changes of B16 cells” value is listed as “not altered”.
For {[Cu(bpy)2(μ2OClO3)]ClO4}n [CubP], the TI in series [1] is given as 5.53. The half-maximal inhibitory concentration (IC50) in [1] is 16 µM. Besides, the MIC with E. coli 25922 [2] was 540 µM; in the series on P. aeruginosa 27853 [3] it was 1090 µM; in the series with S. aureus 25923 [4] it was 270 µM; in the series on MRSA 388 [5], 270 µM. Besides, the MBEC with E. coli 25922 [6] was 0.54 mM; with P. aeruginosa 27853 [7], 1.09 mM; with S. aureus 25923 [8] it was 0.14 mM; in the series on MRSA 388 [9], 0.27 mM.
